Measurements reported in patent EP2255814A1, “AGENT FOR INCREASING THE QUANTITY OF HYALURONIC ACID” (Nagase ChemteX Corporation, priority 2008, dated 2009).

Legend:
[1] = test system: Normal human dermal fibroblasts (NHDF(AD)); assay: Hyaluronan production promoting effect in fibroblasts (ELISA of culture supernatant); assay type: cell-based; conditions: phospholipid liposome at 100 µg/mL, 24 hours
Description: Normal human dermal fibroblasts (NHDF(AD); Kurabo Industries, Ltd.) were seeded at 2×10^5/well in 24-well plates. After 24-hour preculture, the culture media were removed and replaced with culture media each containing a different phospholipid liposome at 100 µg/mL, i.e. , the PI-PS containing liposome obtained in Preparation Example 2, the PI liposome obtained in Preparation Example 3, or the PS liposome obtained in Preparation Example 4. The culture was maintained for 24 hours. The culture supernatant was collected and hyaluronan therein was quantified by the ELISA method.
A hyaluronan binding protein (HABP; SEIKAGAKU CORPORATION) was added at 2 µg/mL to 96-well plates, which were then allowed to stand at 4°C for 24 hours. After this, the wells were washed. Blocking was performed at 4°C for 24 hours using Block Ace (Dainippon Sumitomo Pharma Co., Ltd.). After the wells were washed, a hyaluronan standard (Wako Pure Chemical Industries, Ltd.) or the culture supernatant was added to the wells and 1-hour incubation was performed at 37°C. After the wells were washed, biotinylated HABP (SEIKAGAKU CORPORATION) was added to the wells and 2-hour incubation was performed at 37°C. […] After the reaction at 37°C for 30 minutes, the absorbance at 405 nm was measured.

[2] = test system: hyaluronan synthase HAS2; assay: Augmentation effect on mRNA expression of hyaluronan synthase HAS2 (semi-quantitative RT-PCR); assay type: cell-based; conditions: human fibroblast NHDF(AD), phospholipid liposome in culture medium, 24 hours; concentrations only in Fig. 1
Description: Normal human fibroblasts (NHDF(AD); Kurabo Industries Ltd.) were seeded at 8×10^5/well in 6-well plates. After 24-hour preculture, the culture media were removed and replaced with culture media each containing a different phospholipid liposome prepared in Preparation Examples 2 to 4. The culture was maintained for 24 hours. Then, after removal of the culture medium and addition of 1 mL of ISOGEN (NIPPON GENE), RNA was extracted from the cells according to the usual method described in the attachment of ISOGEN.
cDNA preparation was performed using SuperScriptIII First-Strand Synthesis System for RT-PCR (Invitrogen) according to the operating procedures described in the attachment of the kit. RT-PCR was performed using primers below. HAS2 (Forward): […] (SEQ ID NO: 1) HAS2 (Reverse): […] (SEQ ID NO: 2) β-actin (Forward): […] (SEQ ID NO: 3) β-actin (Reverse): […] (SEQ ID NO: 4)
Using each of the obtained cDNA and the HAS2 primer set, PCR was performed for 29 cycles of 94°C for 1 min, 58°C for 1 min, and 72°C for 1 min. […] After completion of PCR, the PCR product was analyzed by electrophoresis in 1.5% agarose gel. Each band strength was determined by densitometry and the degree of increase in HAS2 mRNA expression was semi-quantitatively assessed by comparison of the HAS2/β-actin ratios between samples and the control. […]

Substance | production of hyaluronan [1] | mRNA expression of HAS2 (HAS2/β-actin ratio relative to control cells) [2]
L-α-phosphatidylinositol Na [PI] | significantly increased | significantly increased
L-α-phosphatidylserine [PS] | significantly increased | significantly increased
